The source of these data is patent US12098148B2, “Therapeutic compounds” (C4X Discovery Limited, priority 2018, dated 2024).

The structures appear in SMILES notation.

Assay [1] has as its system NQO1 mRNA in BEAS-2B cells. The assay is described as follows: Beas2B NQO1 mRNA cell based assay. Set-up: species or system human. The following applies: Homo sapiens, BEAS-2B, 24 h, 24 h compound treatment, increase in NQO1 mRNA vs vehicle (0.1% DMSO), read-out: EC50. In a few lines:
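Relative NQO1 transcript level derived by ΔΔCT with human β-actin as internal control, using direct-lysate one-step RT-qPCR. Cells were BEAS-2B, plated overnight then treated with compound for 24 h.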

For assay [2], the target named is human KEAP1 (N-term, residues 321-609) (Homo sapiens, UniProt Q14145). The assay is described as follows: biochemical.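 Note: fluorescence polarization competition assay of Kelch domain binding to NRF2, 12-point 1:3 dilution series from 10 µM, read after 1 h at room temperature, floor 10 nM.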
human KEAP1 (N-term, residues 321-609), sequence (Q14145 321-609): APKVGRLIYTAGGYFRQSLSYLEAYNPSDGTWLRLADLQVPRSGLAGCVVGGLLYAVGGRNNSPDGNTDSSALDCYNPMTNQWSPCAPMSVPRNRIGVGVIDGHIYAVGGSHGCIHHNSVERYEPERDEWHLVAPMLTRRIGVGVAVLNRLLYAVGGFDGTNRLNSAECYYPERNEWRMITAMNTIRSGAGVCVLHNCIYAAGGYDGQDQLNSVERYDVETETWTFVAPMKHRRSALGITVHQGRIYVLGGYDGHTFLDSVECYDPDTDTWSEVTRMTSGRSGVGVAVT

Regarding `Cn1nnc(COc2ccc(Cl)c3c2[C@@H](CN2CCCC2=O)N(C(=O)[C@@H]2CCCC[C@]2(C)C(=O)O)CC3)c1C(F)(F)F` [Example 108, (1S,2R)-2-((S)-5-Chloro-8-((1-methyl-5-(trifluoromethyl)-1H-1,2,3-triazol-4-yl)methoxy)-1-((2-oxopyrrolidin-1-yl)methyl)-1,2,3,4-tetrahydroisoquinoline-2-carbonyl)-1-methylcyclohexane-1-carboxylic acid], the concentration for a half-maximal effect (EC50) in assay [1] amounted to 1.5 nM. Moreover, the 50% inhibitory concentration (IC50) in assay [2] came to 5.9 nM.

As for `C[C@@H]1CC(=O)N(C[C@@H]2c3c(OCc4nnn(C)c4C(F)F)ccc(Cl)c3CCN2C(=O)[C@@H]2CCC[C@]2(C)C(=O)O)C1` [Example 109, (1S,2R)-2-((S)-5-Chloro-8-((5-(difluoromethyl)-1-methyl-1H-1,2,3-triazol-4-yl)methoxy)-1-(((R)-4-methyl-2-oxopyrrolidin-1-yl)methyl)-1,2,3,4-tetrahydroisoquinoline-2-carbonyl)-1-methylcyclopentane-1-carboxylic acid], the EC50 in assay [1] amounted to 7.4 nM. For the same compound, the IC50 in assay [2] is 9.7 nM.

On to `Cn1nnc(COc2ccc(Cl)c3c2[C@@H](CN2CC4(CC4)CC2=O)N(C(=O)[C@@H]2CCC[C@]2(C)C(=O)O)CC3)c1C(F)F` [Example 110, (1S,2R)-2-((S)-5-Chloro-8-((5-(difluoromethyl)-1-methyl-1H-1,2,3-triazol-4-yl)methoxy)-1-((6-oxo-5-azaspiro[2.4]heptan-5-yl)methyl)-1,2,3,4-tetrahydroisoquinoline-2-carbonyl)-1-methylcyclopentane-1-carboxylic acid], for which the 50% effective concentration (EC50) in assay [1] is 1.3 nM. Further, the half-inhibitory concentration (IC50) in assay [2] was determined as 6.3 nM.

Take `C[C@@H]1CC(=O)N(C[C@@H]2c3c(OCc4nnn(C)c4C(F)F)ccc(Cl)c3CCN2C(=O)[C@@H]2CCCC[C@]2(C)C(=O)O)C1` [Example 111, (1S)-2-((S)-5-Chloro-8-((5-(difluoromethyl)-1-methyl-1H-1,2,3-triazol-4-yl)methoxy)-1-1-(((R)-4-methyl-2-oxopyrrolidin-1-yl)methyl)-1,2,3,4-tetrahydroisoquinoline-2-carbonyl)-1-methylcyclohexane-1-carboxylic acid]: in assay [1], the EC50 is 2.5 nM. Also, half-maximal inhibition in assay [2] (IC50) required 6.1 nM.

As to `C[C@@H]1CCN(C[C@@H]2c3c(OCc4nnn(C)c4C(F)F)ccc(Cl)c3CCN2C(=O)[C@@H]2CCCC[C@]2(C)C(=O)O)C1=O` [Example 112, (1S,2R)-2-((S)-5-Chloro-8-((5-(difluoromethyl)-1-methyl-1H-1,2,3-triazol-4-yl)methoxy)-1-(((R)-3-methyl-2-oxopyrrolidin-1-yl)methyl)-1,2,3,4-tetrahydroisoquinoline-2-carbonyl)-1-methylcyclohexane-1-carboxylic acid], in assay [1], the EC50 came to 280 nM. Also, in assay [2], the midpoint of inhibition, the IC50, lay at 9.4 nM.

As for `C[C@@H]1CCN(C[C@@H]2c3c(OCc4nnn(C)c4C(F)F)ccc(Cl)c3CCN2C(=O)[C@@H]2CCC[C@]2(C)C(=O)O)C1=O` [Example 113, (1S,2R)-2-((1S)-5-Chloro-8-((5-(difluoromethyl)-1-methyl-1H-1,2,3-triazol-4-yl)methoxy)-1-(((R)-3-methyl-2-oxopyrrolidin-1-yl)methyl)-1,2,3,4-tetrahydroisoquinoline-2-carbonyl)-1-methylcyclopentane-1-carboxylic acid], the 50% effective concentration (EC50) in assay [1] stood at 240 nM. The midpoint of inhibition in assay [2], the IC50, lay at 10 nM.

As for `C[C@H]1CCN(C[C@@H]2c3c(OCc4nnn(C)c4C(F)F)ccc(Cl)c3CCN2C(=O)[C@@H]2CCC[C@]2(C)C(=O)O)C1=O` [Example 114, (1S,2R)-2-((1S)-5-Chloro-8-((5-(difluoromethyl)-1-methyl-1H-1,2,3-triazol-4-yl)methoxy)-1-(((S)-3-methyl-2-oxopyrrolidin-1-yl)methyl)-1,2,3,4-tetrahydroisoquinoline-2-carbonyl)-1-methylcyclopentane-1-carboxylic acid], in assay [1], the EC50 came to 16 nM. Moreover, the midpoint of inhibition in assay [2], the IC50, lay at 7.4 nM.

Take `C[C@H]1CCN(C[C@@H]2c3c(OCc4nnn(C)c4C(F)F)ccc(Cl)c3CCN2C(=O)[C@@H]2CCCC[C@]2(C)C(=O)O)C1=O` [Example 115, (1S,2R)-2-((1S)-5-Chloro-8-((5-(difluoromethyl)-1-methyl-1H-1,2,3-triazol-4-yl)methoxy)-1-(((S)-3-methyl-2-oxopyrrolidin-1-yl)methyl)-1,2,3,4-tetrahydroisoquinoline-2-carbonyl)-1-methylcyclohexane-1-carboxylic acid]: the EC50 in assay [1] was determined as 4.2 nM. This compound returned a half-inhibitory concentration (IC50) in assay [2] of 9.7 nM.

Turning to `C[C@H]1CC(=O)N(C[C@@H]2c3c(OCc4nnn(C)c4C(F)F)ccc(Cl)c3CCN2C(=O)[C@@H]2CCC[C@]2(C)C(=O)O)C1` [Example 116, (1S,2R)-2-((S)-5-chloro-8-((5-(difluoromethyl)-1-methyl-1H-1,2,3-triazol-4-yl)methoxy)-1-(((S)-4-methyl-2-oxopyrrolidin-1-yl)methyl)-1,2,3,4-tetrahydroisoquinoline-2-carbonyl)-1-methylcyclopentane-1-carboxylic acid], the concentration for a half-maximal effect (EC50) in assay [1] was determined as 1900 nM. Also, half-maximal inhibition in assay [2] (IC50) required 73 nM.

As to `CC[C@]1(C(=O)O)CCCC[C@H]1C(=O)N1CCc2c(Cl)ccc(OCc3nnn(C)c3C(F)F)c2[C@H]1CN1CCCC1=O` [Example 117, (1S,2R)-2-((S)-5-chloro-8-((5-(difluoromethyl)-1-methyl-1H-1,2,3-triazol-4-yl)methoxy)-1-((2-oxopyrrolidin-1-yl)methyl)-1,2,3,4-tetrahydroisoquinoline-2-carbonyl)-1-ethylcyclohexane-1-carboxylic acid], in assay [1], the EC50 is 37 nM. Besides, the IC50 in assay [2] is 8.2 nM.

Consider `CC[C@]1(C(=O)O)CCC[C@H]1C(=O)N1CCc2c(Cl)ccc(OCc3nnn(C)c3C(F)F)c2[C@H]1CN1CCCC1=O` [Example 118, (1S,2R)-2-((S)-5-chloro-8-((5-(difluoromethyl)-1-methyl-1H-1,2,3-triazol-4-yl)methoxy)-1-((2-oxopyrrolidin-1-yl)methyl)-1,2,3,4-tetrahydroisoquinoline-2-carbonyl)-1-ethylcyclopentane-1-carboxylic acid], for which the concentration for a half-maximal effect (EC50) in assay [1] is 59 nM. It took 8.4 nM to reach half-maximal inhibition in assay [2] (IC50).

Turning to `CCn1nnc(COc2ccc(Cl)c3c2[C@@H](CN2CCCC2=O)N(C(=O)[C@@H]2CCC[C@]2(C)C(=O)O)CC3)c1C(F)F` [Example 119, (1S,2R)-2-((S)-5-chloro-8-((5-(difluoromethyl)-1-ethyl-1H-1,2,3-triazol-4-yl)methoxy)-1-((2-oxopyrrolidin-1-yl)methyl)-1,2,3,4-tetrahydroisoquinoline-2-carbonyl)-1-methylcyclopentane-1-carboxylic acid], the EC50 in assay [1] was determined as 18 nM. This compound returned an IC50 in assay [2] of 8.1 nM.

Consider `CCn1nnc(COc2ccc(Cl)c3c2[C@@H](CN2CCCC2=O)N(C(=O)[C@@H]2CCCC[C@]2(C)C(=O)O)CC3)c1C(F)F` [Example 120, (1S,2R)-2-((S)-5-chloro-8-((5-(difluoromethyl)-1-ethyl-1H-1,2,3-triazol-4-yl)methoxy)-1-((2-oxopyrrolidin-1-yl)methyl)-1,2,3,4-tetrahydroisoquinoline-2-carbonyl)-1-methylcyclohexane-1-carboxylic acid], for which the 50% effective concentration (EC50) in assay [1] came out at 1.2 nM. Further, 6.2 nM corresponded to half-maximal inhibition in assay [2] (IC50).

`CC(C)n1nnc(COc2ccc(Cl)c3c2[C@@H](CN2CCCC2=O)N(C(=O)[C@@H]2CCCC[C@]2(C)C(=O)O)CC3)c1C(F)F` [Example 121, (1S,2R)-2-((S)-5-chloro-8-((5-(difluoromethyl)-1-isopropyl-1H-1,2,3-triazol-4-yl)methoxy)-1-((2-oxopyrrolidin-1-yl)methyl)-1,2,3,4-tetrahydroisoquinoline-2-carbonyl)-1-methylcyclohexane-1-carboxylic acid]: the EC50 in assay [1] amounted to 11 nM. The compound further showed a concentration for half-maximal inhibition (IC50) in assay [2] of 6.3 nM.

In the case of `CC(C)n1nnc(COc2ccc(Cl)c3c2[C@@H](CN2CCCC2=O)N(C(=O)[C@@H]2CCC[C@]2(C)C(=O)O)CC3)c1C(F)F` [Example 122, (1S,2R)-2-((S)-5-chloro-8-((5-(difluoromethyl)-1-isopropyl-1H-1,2,3-triazol-4-yl)methoxy)-1-((2-oxopyrrolidin-1-yl)methyl)-1,2,3,4-tetrahydroisoquinoline-2-carbonyl)-1-methylcyclopentane-1-carboxylic acid], in assay [1], the EC50 turned out to be 86 nM. This compound registered an IC50 in assay [2] of 9.7 nM.

As for `Cn1nnc(COc2ccc(Cl)c3c2[C@@H](CN2CC4(CC4)CC2=O)N(C(=O)[C@@H]2CCCC[C@]2(C)C(=O)O)CC3)c1C(F)F` [Example 123, (1S,2R)-2-((S)-5-chloro-8-((5-(difluoromethyl)-1-methyl-1H-1,2,3-triazol-4-yl)methoxy)-1-((6-oxo-5-azaspiro[2.4]heptan-5-yl)methyl)-1,2,3,4-tetrahydroisoquinoline-2-carbonyl)-1-methylcyclohexane-1-carboxylic acid], in assay [1], the concentration giving a half-maximal response (EC50) was determined as 0.26 nM. In addition, 5.8 nM corresponded to half-maximal inhibition in assay [2] (IC50).

For `Cc1onc(COc2ccc(Cl)c3c2[C@@H](CN2CCCC2=O)N(C(=O)[C@@H]2CCCC[C@]2(C)C(=O)O)CC3)c1C` [Example 124, (1S,2R)-2-((S)-5-chloro-8-((4,5-dimethylisoxazol-3-yl)methoxy)-1-((2-oxopyrrolidin-1-yl)methyl)-1,2,3,4-tetrahydroisoquinoline-2-carbonyl)-1-methylcyclohexane-1-carboxylic acid], in assay [1], the EC50 was 6.8 nM. The compound also came in with an IC50 in assay [2] of 8.4 nM.

Take `Cc1onc(COc2ccc(Cl)c3c2[C@@H](CN2CCCC2=O)N(C(=O)[C@@H]2CCCC[C@]2(C)C(=O)O)CC3)c1Cl` [Example 125, (1S,2R)-2-((S)-5-chloro-8-((4-chloro-5-methylisoxazol-3-yl)methoxy)-1-((2-oxopyrrolidin-1-yl)methyl)-1,2,3,4-tetrahydroisoquinoline-2-carbonyl)-1-methylcyclohexane-1-carboxylic acid]: the concentration giving a half-maximal response (EC50) in assay [1] came to 30 nM. In addition, in assay [2], the IC50 was 9.2 nM.
